Test results as given in US20260216294A1, “BETA 2-ADRENERGIC RECEPTOR AGONISTS FOR TREATMENT OR PREVENTION OF MUSCLE WASTING” (ATROGI AB, priority 2023, published 2026).

Assays:
L6-myotubes [1] = experiment: Glucose uptake in differentiated L6-myotubes (Biological Example 2); assay type: cell-based; conditions: for Emax at 10 µM: read-out: Biological example 2 (GU)
Outline: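 Uptake was quantified as radioactivity in 0.2 M NaOH lysates after a 10 min pulse of 50 nM ^3H-2-deoxyglucose. The pulse followed two agonist exposures at 1×10^−5 M final (isoprenaline or test compound): 1 h 40 min, then 20 min in glucose-free medium after washing. L6 myotubes had been starved overnight in medium with 0.5% fatty-acid-free BSA.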

L6-myotubes [2] = experiment: Measurement of intracellular cAMP levels in differentiated L6-myotubes (Biological Example 3); assay type: cell-based; conditions: 0.25 h
Outline: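 Intracellular cAMP quantified by AlphaScreen after ethanol extraction and lysis of L6 myotubes. Cells were serum-starved overnight, then exposed for 15 min to compound (final 1×10^−5 M) or isoprenaline in IBMX-containing (1 mM) HBSS buffer, pH 7.4.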

[3] = glucose uptake in differentiated L6-myotubes, compound at 10 μM, activity relative to isoproterenol at 10 μM
[4] = intracellular cAMP in differentiated L6-myotubes, compound at 10 μM, activity relative to isoproterenol at 10 μM
[5] = glucose uptake, compound at 10 μM relative to isoproterenol at 10 μM
[6] = intracellular cAMP, compound at 10 μM relative to isoproterenol at 10 μM

Structure (SMILES) | Emax at 10 µM (L6-myotubes [1]; [3]) | Emax at 10 µM (L6-myotubes [2]; [4]) | Emax at 10 µM (L6-myotubes [1]; [5]) | Emax at 10 µM (L6-myotubes [2]; [6]) | Biological example 2 (GU) (L6-myotubes [1]; [5])
CO[C@H]1CC[C@H](C[C@@H]2CC[C@H]([C@@H](O)c3cncc(F)c3)N2)CC1 [Compound 332] | 25 to 50% | < 25% |  |  | 
CC(C)(C[C@H]1CC[C@@H](NS(C)(=O)=O)CC1)NC[C@H](O)c1cccc(C(F)(F)F)n1 [Compound 463] | 50 to 75% | < 25% |  |  | 
CO[C@H]1CC[C@H](C[C@H]2CC[C@H]([C@@H](O)c3ccccc3F)N2)CC1 [Compound 338, (S)-[(2R,5R)-5-{[(1r,4R)-4-methoxycyclohexyl]methyl}-2-pyrrolidinyl](o-fluorophenyl)methanol] | 50 to 75% | < 25% |  |  | 
CCCC1(CCC)CC[C@H]([C@H](O)c2cccc(F)c2)N1 [Compound 159] |  |  | 50 to 75% | < 25% | 
CC(C)(NC[C@H](O)c1cncc(F)c1)[C@H]1CC[C@H](NS(C)(=O)=O)CC1 [Compound 345, (R)-1-(5-fluoro-3-pyridyl)-2-{1-methyl-1-[(1r,4R)-4-(mesylamino)cyclohexyl]ethylamino}-1-ethanol] | 25 to 50% | < 25% |  |  | 
O=C(N[C@H]1CC[C@@H](CNC[C@H](O)c2cccc(F)c2)CC1)c1ccccc1 [Compound 316] | 50 to 75% | < 25% |  |  | 
O[C@@H](c1cncc(F)c1)[C@H]1CC[C@H](Cc2ccc(Cl)cc2)N1 [Compound 405, (S)-{(2R,5R)-5-[(p-chlorophenyl)methyl]-2-pyrrolidinyl}(5-fluoro-3-pyridyl)methanol] | > 75% | < 25% |  |  | 
CC(C)(C[C@H]1CC[C@@H](S(N)(=O)=O)CC1)NC[C@H](O)c1cccc(F)c1 [Compound 517, (1S,4s)-4-{2-[(R)-2-(m-fluorophenyl)-2-hydroxyethylamino]-2-methylpropyl} cyclohexanesulfonamide] | 25 to 50% | < 25% |  |  | 
CCC[C@H]1CCC[C@@H]([C@H](O)c2cccc(F)c2)N1 [Compound 120] |  |  | 50 to 75% | < 25% | 
CCCC(C)(C)NC[C@H](O)c1cccc(F)c1 [Compound 61, (R)-2-(1,1-dimethylbutylamino)-1-(m-fluorophenyl)-1-ethanol] |  |  | > 75% | < 25% | 
Oc1ccc(C(O)CNC23CC4CC(CC(C4)C2)C3)cc1 (centres unmarked) [Compound 11, p-[2-(1-adamantanylamino)-1-hydroxyethyl]phenol] |  |  | 25 to 50% | < 25% | 
CC12CCC([C@H](O)c3cncc(F)c3)(CC1)N2 [Compound 185, (R)-(5-fluoro-3-pyridyl)(4-methyl-7-azabicyclo[[2.2.1]]hept-1-yl)methanol] |  |  | > 75% | < 25% | 
CC(C)(C[C@H]1CC[C@@H](N)CC1)NC[C@H](O)c1cccc(C#N)n1 [Compound 418, 6-[(S)-2-{1,1-dimethyl-2-[(1s,4R)-4-aminocyclohexyl]ethylamino}-1-hydroxyethyl]-2-pyridinecarbonitrile] | 50 to 75% | < 25% |  |  | 
Cc1ncccc1[C@@H](O)CNC(C)(C)C [Compound 376, (R)-2-(tert-butylamino)-1-(2-methyl-3-pyridyl)-1-ethanol] | > 75% | 25 to 50% |  |  | 
CCC[C@H]1CCC[C@H]([C@H](O)c2ccc(F)c(F)c2)N1 [Compound 67, (R)-[(2R,6S)-6-propyl-2-piperidyl](3,4-difluorophenyl)methanol] |  |  | 25 to 50% | < 25% | 
CC(C)(C)NC[C@H](O)c1cncc(F)c1 [Compound 99, (R)-2-(tert-butylamino)-1-(5-fluoro-3-pyridyl)-1-ethanol] |  |  | > 75% | 25 to 50% | 
CCC[C@@H]1CC[C@H]([C@H](O)c2cncc(F)c2)N1 [Compound 160, (R)-[(2R,5R)-5-propyl-2-pyrrolidinyl](5-fluoro-3-pyridyl)methanol] |  |  |  | < 25% | +++ (If a compound at 10 μM shows activity of more than 75% of that of isoproterenol at 10 μM, the activity is denoted with +++)
CC(C)(C[C@H]1CC[C@H](S(N)(=O)=O)CC1)NC[C@H](O)c1cncc(F)c1 [Compound 518, (1R,4r)-4-{2-[(R)-2-(5-fluoro-3-pyridyl)-2-hydroxyethylamino]-2-methylpropyl} cyclohexanesulfonamide] | 50 to 75% | < 25% |  |  | 
COc1ccc(CC23CCC([C@@H](O)c4cccc(F)c4)(CC2)N3)cc1 [Compound 400, (S)-(m-fluorophenyl){4-[(p-methoxyphenyl)methyl]-7-azabicyclo[[2.2.1]]hept-1-yl}methanol] | 50 to 75% | < 25% |  |  | 

Structure (SMILES) | Emax at 10 µM (L6-myotubes [1]; [3]) | Emax at 10 µM (L6-myotubes [2]; [4]) | Emax at 10 µM (L6-myotubes [1]; [5]) | Emax at 10 µM (L6-myotubes [2]; [6]) | Biological example 2 (GU) (L6-myotubes [1]; [5])
O[C@H](c1cccc(F)c1)[C@H]1CC[C@@H](Cc2ccc(Cl)cc2)N1 [Compound 392, (R)-{(2R,5S)-5-[(p-chlorophenyl)methyl]-2-pyrrolidinyl}(m-fluorophenyl)methanol] | > 75% | < 25% |  |  | 
CCC[C@H]1CCCC[C@@H]([C@H](O)c2cncc(F)c2)N1 [Compound 234, (R)-[(2S,7S)-7-propyl-2-azepanyl](5-fluoro-3-pyridyl)methanol] | > 75% | < 25% |  |  | 
CN([C@H]1CC[C@H](CC(C)(C)NC[C@H](O)c2cncc(F)c2)CC1)S(C)(=O)=O [Compound 521, (R)-2-{1,1-dimethyl-2-[(1r,4R)-4-(N-mesyl-N-methylamino)cyclohexyl]ethylamino}-1-(5-fluoro-3-pyridyl)-1-ethanol] | 50 to 75% | < 25% |  |  | 
CCC[C@H]1CCC[C@H]([C@H](O)c2ccc(F)cc2)N1 [Compound 92] |  |  | 25 to 50% | < 25% | 
CO[C@H]1CC[C@H](C[C@H]2CC[C@H]([C@H](O)c3ccccc3F)N2)CC1 [Compound 339, (R)-[(2R,5R)-5-{[(1r,4R)-4-methoxycyclohexyl]methyl}-2-pyrrolidinyl](o-fluorophenyl)methanol] | > 75% | < 25% |  |  | 
CC12CCC([C@@H](O)c3ccccc3Cl)(CC1)N2 [Compound 194, (S)-(o-chlorophenyl)(4-methyl-7-azabicyclo[[2.2.1]]hept-1-yl)methanol] |  |  | > 75% | < 25% | 
CS(=O)(=O)N[C@H]1CC[C@@H](C[C@@H]2CC[C@H]([C@@H](O)c3cccc(F)c3)N2)CC1 [Compound 511] | 25 to 50% | < 25% |  |  | 
O[C@@H](CNC[C@H]1CC[C@H](O)CC1)c1cccc(F)c1 [Compound 272, (R)-1-(m-fluorophenyl)-2-({[(1r,4R)-4-hydroxycyclohexyl]methyl}amino)-1-ethanol] | 25 to 50% | < 25% |  |  | 
CO[C@H]1CC[C@H](C[C@]2(C)CC[C@H]([C@@H](O)c3cccc(F)c3)N2)CC1 [Compound 363, (S)-[(2R,5S)-5-methyl-5-{[(1r,4S)-4-methoxycyclohexyl]methyl}-2-pyrrolidinyl](m-fluorophenyl)methanol] | > 75% | < 25% |  |  | 
CCCS(=O)(=O)N[C@H]1CC[C@@H](CC(C)(C)NC[C@H](O)c2cncc(F)c2)CC1 [Compound 523, (R)-2-{1,1-dimethyl-2-[(1s,4S)-4-(propylsulfonylamino)cyclohexyl]ethylamino}-1-(5-fluoro-3-pyridyl)-1-ethanol] | 50 to 75% | < 25% |  |  | 
CC(=O)N[C@H]1CC[C@@H](CC(C)(C)NC[C@H](O)c2cccc(C#N)n2)CC1 [Compound 421] | > 75% | < 25% |  |  | 
Cn1ccc([C@@H](O)CNC(C)(C)C)cc1=O [Compound 98, 4-[(R)-2-(tert-butylamino)-1-hydroxyethyl]-1-methyl-2(1H)-pyridinone] |  |  | > 75% | < 25% | 
CC1(C)CCC[C@@H]([C@H](O)c2ccccc2F)N1 [Compound 193] |  |  | > 75% | 25 to 50% | 
CC1(C)C[C@@H]([C@H](O)c2cccc(Cl)c2)N1 [Compound 232] | 25 to 50% | < 25% |  |  | 
COC(=O)[C@H]1CC[C@H](CC(C)(C)NC[C@H](O)c2cncc(F)c2)CC1 [Compound 354, methyl (1R,4r)-4-{2-[(R)-2-(5-fluoro-3-pyridyl)-2-hydroxyethylamino]-2-methylpropyl} cyclohexanecarboxylate] | 50 to 75% | < 25% |  |  | 
COC(=O)[C@H]1CC[C@H](C(C)(C)NC[C@H](O)c2cccc(F)c2)CC1 [Compound 367, (1R,4r)-8-[(R)-2-(m-fluorophenyl)-2-hydroxyethylamino]-7-methoxy-p-menthan-7-one] | > 75% | 25 to 50% |  |  | 
CC(C)(NC[C@H](O)c1cncc(F)c1)[C@H]1CC[C@@H](OCc2ccccc2)CC1 [Compound 282, (R)-1-(5-fluoro-3-pyridyl)-2-{1-methyl-1-[(1s,4S)-4-(benzyloxy)cyclohexyl]ethylamino}-1-ethanol] | 50 to 75% | < 25% |  |  | 
CC12CC(C1)[C@@H]([C@@H](O)c1cccc(N)c1F)N2 [Compound 242, (S)-{(S)-1-methyl-2-azabicyclo[[2.1.1]]hex-3-yl}(3-amino-2-fluorophenyl)methanol] | 50 to 75% | < 25% |  |  | 
